Consider 47 molecules from patent US12043613B2, “Inhibitors of SARM1” (Disarm Therapeutics, Inc., priority 2020, dated 2024).

Experiment [1] addresses T1, SARM1 (ARM-SAM-TIR, full length SARM1) (Homo sapiens, UniProt Q6SZW1).
T1 sequence (Q6SZW1 with tags, fused parts or gaps): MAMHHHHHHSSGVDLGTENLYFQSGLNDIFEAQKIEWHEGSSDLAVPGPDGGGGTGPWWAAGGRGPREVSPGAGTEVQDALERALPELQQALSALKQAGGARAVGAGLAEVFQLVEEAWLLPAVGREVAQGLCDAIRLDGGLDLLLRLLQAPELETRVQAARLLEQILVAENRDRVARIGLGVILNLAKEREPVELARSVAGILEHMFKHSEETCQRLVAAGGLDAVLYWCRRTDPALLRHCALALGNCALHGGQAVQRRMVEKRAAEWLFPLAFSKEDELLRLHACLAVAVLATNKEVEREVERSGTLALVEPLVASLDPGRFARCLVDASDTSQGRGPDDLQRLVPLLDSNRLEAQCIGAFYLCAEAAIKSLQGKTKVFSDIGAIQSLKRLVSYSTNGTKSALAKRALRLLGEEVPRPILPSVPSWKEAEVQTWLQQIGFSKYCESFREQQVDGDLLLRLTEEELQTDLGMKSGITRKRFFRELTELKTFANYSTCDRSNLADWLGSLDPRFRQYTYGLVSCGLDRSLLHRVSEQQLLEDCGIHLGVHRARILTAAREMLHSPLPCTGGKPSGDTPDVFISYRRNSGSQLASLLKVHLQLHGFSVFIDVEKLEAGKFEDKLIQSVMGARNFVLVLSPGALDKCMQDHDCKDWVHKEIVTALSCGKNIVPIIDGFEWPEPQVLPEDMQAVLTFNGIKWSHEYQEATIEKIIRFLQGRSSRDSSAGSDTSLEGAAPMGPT
Conditions: read-out: SARM1 IC50; ARM-SAM-TIR lysate 5 μg/mL from NRK1-HEK293T cells, 2 h pre-incubation, 5 uM NAD+, 2 hr room temperature.
Experimental: (§1) This assay makes use of full length SARM1, which encompasses the ARM, SAM and TIR domains.
Preparation of ARM-SAM-TIR lysate (STL)
(§2) NRK1-HEK293T cells were seeded onto 150 cm^2 plates at 20×10^6 cells per plate. The next day, the cells were transfected with 15 g ARM-SAM-TIR expression plasmid, SEQ ID NO: 1.
(§3) The cultures were supplemented with 1 mM NR at time of transfection to minimize toxicity from ARM-SAM-TIR overexpression. Forty-eight hours after transfection, cells were harvested, pelleted by centrifugation at 1,000 rpm (Sorvall ST 16R centrifuge, Thermo Fisher), and washed once with cold PBS (0.01 M phosphate buffered saline NaCl 0.138 M; KCl 0.0027 M; pH 7.4). The cells were resuspended in PBS with protease inhibitors (cOmplete™ protease inhibitor cocktail, Roche product #11873580001) and cell lysates were prepared by sonication (Branson Sonifer 450, output=3, 20 episodes of stroke). The lysates were centrifuged (12,000×g for 10 min at 4° C.) to remove cell debris and the supernatants (containing ARM-SAM-TIR protein) were stored at −80° C. for later use in the in vitro ARM-SAM-TIR NADase assay (see below). Protein concentration was determined by the Bicinchoninic (BCA) method and used to normalize lysate concentrations.
(§4) ARM-SAM-TIR IC50 assay of Formula I compounds.
(§5) The enzymatic assay was performed in a 384-well polypropylene plate in Dulbecco's PBS buffer in a final assay volume of 20 μL. ARM-SAM-TIR lysate with a final concentration of 5 μg/mL was pre-incubated with the respective compound at 1% DMSO final assay concentration over 2h at room temperature. The reaction was initiated by addition of 5 uM final assay concentration of NAD+ as substrate. After a 2 hr room temperature incubation, the reaction was terminated with 40 μL of stop solution of 7.5% trichloroactetic acid in acetonitrile. The NAD+ and ADPR concentrations were analyzed by a RapidFire High Throughput Mass Spectrometry System (Agilent Technologies, Santa Clara, Calif.) using an API4000 triple quadrupole mass spectrometer (AB Sciex Framingham, Mass.).

Experiment [2] concerns the target T1, SARM1 (ARM-SAM-TIR, full length SARM1). Description: biochemical. Conditions: SARM1 IC50 (nM), ARM-SAM-TIR lysate 5 μg/mL from NRK1-HEK293T cells, 2 h pre-incubation, 5 uM NAD+, 2 hr room temperature.
Experimental: as §1
Preparation of ARM-SAM-TIR lysate (STL)
as §2, §3, §4, §5

Read-outs that look alike come from different tables or passages of the source.

By IC50 is commonly meant the point on the concentration scale where inhibition reaches its midpoint. Take `O=C1[C@H](Cc2ccc(F)nc2)CCCN1c1cc(-c2ccnnc2)n[nH]1` [I-84*]: in experiment [1], the IC50 is under 50 nM.

On to `O=C1C(Cc2ccc(Cl)cc2)CCCN1c1cc(-c2ccncc2)n[nH]1` (single isomer, unassigned) [I-19* (peak 2)], for which, in experiment [1], the IC50 is under 50 nM.

In the case of `O=C1N(c2nc(-c3ccncc3)n[nH]2)CCC1(F)Cc1ccc(Cl)nc1` (single isomer, unassigned) [I-42* (peak 2)], the IC50 in experiment [1] is over 1000 nM.

For the molecule `O=C1C(Cc2ccc(Cl)cc2)CCCN1c1nnc(-c2ccncc2)[nH]1` (single isomer, unassigned) [I-5* (peak 2)], in experiment [1], the IC50 was under 50 nM.

For the molecule `N#Cc1ccc(CC2CCN(c3cc(-c4ccncc4)n[nH]3)C2=O)cc1F` (single isomer, unassigned) [I-37* (peak 2)], the IC50 in experiment [1] lay in the range of 51 to 100 nM.

Take `Cc1c(-c2ccncc2)n[nH]c1N1CCC(Cc2ccc(Cl)nc2)C1=O` (single isomer, unassigned) [I-48* (peak 2)]: the IC50 in experiment [1] fell in the range of 101 to 500 nM.

`O=C1C(Cc2cnc(Cl)c(F)c2)CCN1c1cc(-c2ccncc2)n[nH]1` (single isomer, unassigned) [I-65* (peak 2)]: the IC50 in experiment [1] was under 50 nM.

As to `O=C1[C@H](Cc2ccc(F)cc2)CCCN1c1cc(-c2ccnnc2)n[nH]1` [I-85*], the IC50 in experiment [1] was under 50 nM.

With `O=C1C(Cc2ccc(F)c(F)c2)CCN1c1cc(-c2ccncc2)n[nH]1` (single isomer, unassigned) [I-16* (peak 2)], in experiment [1], the IC50 is under 50 nM.

As to `O=C1[C@H](Cc2ccc(Cl)nc2)CCCN1c1cc(-c2ccnnc2)n[nH]1` [I-77*], the IC50 in experiment [1] was under 50 nM.

`CN1CCN(c2cc(-c3ccncc3)n[nH]2)C(=O)[C@@H]1Cc1ccc(Cl)cc1` [Compound I-2-a]: in experiment [2], the IC50 is over 1000 nM.

Consider `[2H]C([2H])(c1ccc(Cl)nc1)C1([2H])C(=O)N(c2cc(-c3ccncc3)n[nH]2)C([2H])([2H])C([2H])([2H])C1([2H])[2H]` (single isomer, unassigned) [I-79* (peak 2)], for which, in experiment [2], the IC50 was 101 to 500 nM.

For `O=C1C(Cc2ccc(Cl)nc2)CCN1c1[nH]nc(-c2ccncc2)c1F` (centres unmarked) [Compound I-36], the IC50 in experiment [2] was under 50 nM.

In experiment [2], `O=C1C(Cc2ccc(C(F)(F)F)nc2)CCCN1c1nc(-c2ccncc2)n[nH]1` (centres unmarked) [Compound I-97] gave an IC50 of 101 to 500 nM.

`O=C1C(Cc2ccc(Cl)c(F)c2)CCCN1c1cc(-c2ccncc2)n[nH]1` (centres unmarked) [Compound I-20] showed an IC50 in experiment [2] of under 50 nM.

For `O=C1C(Cc2ccc(Cl)cc2)CCCN1c1cc(-c2ccncc2)n[nH]1` (centres unmarked) [Compound I-19], in experiment [2], the IC50 is under 50 nM.

For the molecule `[2H]C1(Cc2ccc(F)nc2)C(=O)N(c2cc(-c3ccncc3)n[nH]2)C([2H])([2H])C([2H])([2H])C1([2H])[2H]` (centres unmarked) [Compound I-70], the IC50 in experiment [2] was 51 to 100 nM.

For `O=C1C(Cc2cnc(Cl)c(F)c2)CCN1c1cc(-c2ccncc2)n[nH]1` (single isomer, unassigned) [I-65* (peak 1)], in experiment [2], the IC50 was under 50 nM.

With `O=C1C(Cc2ccc(F)c(F)c2)CCN1c1nnc(-c2ccncc2)[nH]1` (single isomer, unassigned) [I-11* (peak 1)], in experiment [2], the IC50 is under 50 nM.

For `O=C1C(Cc2ccc(Cl)nc2)CCCN1c1nnc(-c2ccncc2)[nH]1` (single isomer, unassigned) [I-55* (peak 1)], the IC50 in experiment [2] was 51 to 100 nM.

As for `O=C1C(Cc2ccc(F)c(F)c2)CCN1c1cc(-c2ccncc2)n[nH]1` (centres unmarked) [Compound I-16], the IC50 in experiment [2] was under 50 nM.

Take `O=C1[C@H](Cc2ccc(Cl)c(F)c2)CCCN1c1cc(-c2ccnnc2)n[nH]1` [I-76*]: the IC50 in experiment [1] was under 50 nM.

In turn, `CC1(Cc2ccc(Cl)cc2)CCCN(c2nc(-c3ccncc3)n[nH]2)C1=O` (centres unmarked) [Compound I-54] registered a half-maximal inhibitory concentration (IC50) in experiment [2] of 101 to 500 nM.

In turn, `N[C@H]1CC(Cc2ccc(Cl)nc2)C(=O)N(c2cc(-c3ccncc3)n[nH]2)C1` (some centres unmarked) [Compound I-60] had an IC50 in experiment [2] of 501 to 1000 nM.

On to `O=C1C(Cc2ccc(F)c(F)c2)CCCN1c1nnc(-c2ccncc2)[nH]1` (centres unmarked) [Compound I-13], for which, in experiment [2], the IC50 is under 50 nM.

Take `N#Cc1ccc(CC2CCCN(c3cc(-c4ccncc4)n[nH]3)C2=O)cc1` (centres unmarked) [Compound I-98]: the IC50 in experiment [2] was under 50 nM.

For the molecule `N[C@H]1CC(Cc2ccc(Cl)nc2)C(=O)N(c2cc(-c3ccncc3)n[nH]2)C1` (single isomer, unassigned) [I-60* (peak 1)], the IC50 in experiment [2] is over 1000 nM.

In turn, `O=C1C(Cc2ccc(Cl)cc2)CNCCN1c1nc(-c2ccncc2)n[nH]1` (centres unmarked) [Compound I-38] showed an IC50 in experiment [2] of 501 to 1000 nM.

`O=C1C(Cc2ccc(Cl)nc2)CNCN1c1cc(-c2ccncc2)n[nH]1` (centres unmarked) [Compound I-64] returned an IC50 in experiment [2] of over 1000 nM.

As for `N#Cc1c(-c2ccncc2)n[nH]c1N1CCCC(Cc2ccc(Cl)nc2)C1=O` (centres unmarked) [Compound I-68], in experiment [2], the IC50 was in the range of 101 to 500 nM.

On to `O=C1[C@H](Cc2ccc(Cl)cc2)NCCN1c1cc(-c2ccncc2)n[nH]1` [Compound I-1-a], for which the IC50 in experiment [2] lay within 101 to 500 nM.

`O=C1C(Cc2ccc(Cl)cc2)CNCCN1c1nc(-c2ccncc2)n[nH]1` (single isomer, unassigned) [I-38* (peak 2)] gave an IC50 in experiment [2] of over 1000 nM.

Consider `N#Cc1ccc(CC2CCN(c3cc(-c4ccncc4)n[nH]3)C2=O)cc1F` (centres unmarked) [Compound I-37], for which the IC50 in experiment [2] fell in the range of 51 to 100 nM.

As to `O=C1C(Cc2ccc(Cl)c(F)c2)CCN1c1nnc(-c2ccncc2)[nH]1` (centres unmarked) [Compound I-8], the IC50 in experiment [2] was under 50 nM.

Molecule `Cc1c(N2CCC(Cc3ccc(Cl)cc3)C2=O)n[nH]c1-c1ccncc1` (centres unmarked) [Compound I-6] showed an IC50 in experiment [2] of 51 to 100 nM.

As for `Cc1c(-c2ccncc2)n[nH]c1N1CCC(Cc2ccc(F)c(F)c2)C1=O` (single isomer, unassigned) [I-49* (peak 2)], the IC50 in experiment [2] fell in the range of 51 to 100 nM.

With `O=C1C(Cc2ccc(Cl)nc2)CCCCN1c1cc(-c2ccncc2)n[nH]1` (centres unmarked) [Compound I-40], the IC50 in experiment [2] was 101 to 500 nM.

Molecule `O=C1C(Cc2ccc(F)c(F)c2)CCN1c1nnc(-c2ccncc2)[nH]1` (centres unmarked) [Compound I-11] registered an IC50 in experiment [2] of under 50 nM.

For `O=C1[C@@H](Cc2ccc(Cl)cc2)NCCN1c1cc(-c2ccncc2)n[nH]1` [Compound I-1-b], the IC50 in experiment [2] is over 1000 nM.

In turn, `O=C1N(c2nc(-c3ccncc3)n[nH]2)CCC1(F)Cc1ccc(Cl)nc1` (single isomer, unassigned) [I-42* (peak 1)] displayed an IC50 in experiment [2] of over 1000 nM.

In experiment [2], `O=C1C(Cc2ccc(F)nc2)CCN1c1nnc(-c2ccncc2)[nH]1` (single isomer, unassigned) [I-39* (peak 1)] had an IC50 of 101 to 500 nM.

In experiment [2], `Cc1c(-c2ccncc2)n[nH]c1N1CCC(Cc2ccc(Cl)nc2)C1=O` (centres unmarked) [Compound I-48] came in with an IC50 of 101 to 500 nM.

`Cc1c(-c2ccncc2)n[nH]c1N1CCC(Cc2cnc(Cl)c(F)c2)C1=O` (single isomer, unassigned) [I-41* (peak 2)]: the IC50 in experiment [1] was in the range of 101 to 500 nM.

In experiment [2], `N#Cc1ccc(CC2CCN(c3[nH]nc(-c4ccncc4)c3F)C2=O)cc1F` (single isomer, unassigned) [I-25* (peak 2)] came in with an IC50 of under 50 nM.

In turn, `O=C1C(Cc2ccc(Cl)nc2)CCN1c1[nH]nc(-c2ccncc2)c1Cl` (centres unmarked) [Compound I-34] had an IC50 in experiment [2] of under 50 nM.

The molecule `N#Cc1ccc(CC2CCN(c3cc(-c4ccncc4)n[nH]3)C2=O)cc1` (centres unmarked) [Compound I-114] had an IC50 in experiment [2] of 101 to 500 nM.

With `CC1(Cc2ccc(Cl)cc2)CCN(c2nc(-c3ccncc3)n[nH]2)C1=O` (centres unmarked) [Compound I-45], in experiment [2], the IC50 lay within 501 to 1000 nM.
